In patent publication US8735406B2, “8-oxodihydropurine derivative” (Dainippon Sumitomo Pharma Co., Ltd., priority 2009, dated 2014):
pIC50: −log10 of the molar value. Like-named read-outs stand apart in the source and are kept apart here.

Biological target: T1, FAAH (Rattus norvegicus, UniProt P97612)
T1 construct: Preparation of Rat Brain Membranes Preparations (FAAH Enzyme Solution); from tissue; host or cells: rat cerebrum (brain membrane preparation)
T1 sequence (P97612 1-579): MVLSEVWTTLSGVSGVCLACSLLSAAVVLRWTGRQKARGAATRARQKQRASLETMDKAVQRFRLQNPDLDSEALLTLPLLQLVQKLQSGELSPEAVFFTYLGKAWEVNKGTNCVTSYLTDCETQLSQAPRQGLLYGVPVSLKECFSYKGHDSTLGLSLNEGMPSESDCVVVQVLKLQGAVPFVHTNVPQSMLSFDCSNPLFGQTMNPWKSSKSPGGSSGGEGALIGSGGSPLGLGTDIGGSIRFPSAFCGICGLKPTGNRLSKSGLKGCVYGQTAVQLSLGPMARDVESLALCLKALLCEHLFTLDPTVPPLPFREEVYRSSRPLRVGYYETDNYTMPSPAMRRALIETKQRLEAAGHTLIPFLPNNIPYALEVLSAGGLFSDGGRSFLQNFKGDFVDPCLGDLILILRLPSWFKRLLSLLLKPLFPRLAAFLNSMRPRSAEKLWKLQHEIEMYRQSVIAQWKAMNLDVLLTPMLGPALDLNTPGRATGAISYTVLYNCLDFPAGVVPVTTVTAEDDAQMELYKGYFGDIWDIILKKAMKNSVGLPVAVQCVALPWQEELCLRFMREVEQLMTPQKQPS
Experiment: Determination of FAAH inhibitory activity in rat (rat brain membrane preparations, [3H]-anandamide hydrolysis)
Format: biochemical
How it was run: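 Rat cerebrum membranes (100 μg/mL protein) preincubated 10 min at 37 °C with compound (1% DMSO) in pH 7.6 Tris buffer with 1.5% BSA. Substrate 2 nM [3H]-anandamide plus 2 μM anandamide added for 10 min at 37 °C. [3H]-ethanolamine in the aqueous phase after chloroform/methanol extraction was scintillation counted; IC50 over 0.1 nM–1 μM.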

[1] = rat brain membrane preparations, 100 nM test substance, read-out: FAAH Inhibition, Inhibition Rate at 100 nM
[2] = rat brain membrane preparations, test substance 0.1 nM to 1 μM, read-out: FAAH Inhibition IC50
[3] = at 100 nM, rat brain membrane preparations, read-out: FAAH Inhibition Inhibition Rate at 100 nM
[4] = rat brain membrane preparations, read-out: FAAH Inhibition IC50
[5] = read-out: FAAH Inhibition, Inhibition Rate at 100 nM

inhibition at 0.1 µM [1] [%]	pIC50 [2]	SMILES	other results
102	7.92	CN(C)C(=O)n1c(=O)n(C)c2nc(-c3ccccc3)ncc21 [Example 22]	
93	7.72	CCCCc1ncc2c(n1)n(C)c(=O)n2C(=O)N(C)CC [Example 161, 2-Butyl-N-ethyl-N,9-dimethyl-8-oxo-8,9-dihydro-7H-purine-7-carboxamide]	
		CCCn1c(=O)n(C(=O)N2CC(c3ccccc3F)C2)c2cnc(COC)nc21 [Example 661, 7-{[3-(2-Fluorophenyl)azetidin-1-yl]carbonyl}-2-(methoxymethyl)-9-propyl-7,9-dihydro-8H-purine-8-one]	inhibition at 0.1 µM [3]: 82%; pIC50 [4]: 7.44
91	7.34	CCOC(=O)CN(C)C(=O)n1c(=O)n(C)c2nc(-c3ccccc3)ncc21 [Example 37, Ethyl N-methyl-N-[(9-methyl-8-oxo-2-phenyl-8,9-dihydro-7H-purin-7-yl)carbonyl]glycinate]	
		COc1cccc(-c2ncc3c(n2)n(C)c(=O)n3C(=O)N(C)CCc2cccc(Cl)c2)c1 [Example 76, N-[2-(3-Chlorophenyl)ethyl]-2-(3-methoxyphenyl)-N,9-dimethyl-8-oxo-8,9-dihydro-7H-purine-7-carboxamide]	pIC50 (FAAH Inhibition IC50, rat brain membrane preparations, test substance 0.1 nM to 1 μM): 8.52; inhibition at 0.1 µM [5]: 102%
81	7.25	Cn1c(=O)n(C(=O)N2CCCC2)c2cnc(-c3cccc(OC(F)(F)F)c3)nc21 [compound 204]	
98	7.37	COCCN(C)C(=O)n1c(=O)n(C)c2nc(-c3ccccc3)ncc21 [Example 39, N-(2-Methoxyethyl)-N,9-dimethyl-8-oxo-2-phenyl-8,9-dihydro-7H-purine-7-carboxamide]	
		Cn1c(=O)n(C(=O)N2CC(c3ccc(F)cc3)C2)c2nc(C3CC3)ncc21 [Example 630]	inhibition at 0.1 µM [3]: 102%; pIC50 [4]: 8.00
100	8.05	CCCn1c(=O)n(C(=O)N2CCCC2)c2cnc(-c3ccccc3)nc21 [Example 304, 2-Phenyl-9-propyl-7-(pyrrolidin-1-ylcarbonyl)-7,9-dihydro-8H-purine-8-one]	
101	8.10	Cn1c(=O)n(C(=O)N2CCCC2)c2cnc(-c3cccc(Cl)c3)nc21 [Example 17]	
95	8.00	COCc1ncc2c(n1)n(C)c(=O)n2C(=O)N1CC(c2ccc(C(F)(F)F)cc2)C1 [compound 448]	
89	7.62	COc1ccc(Cc2ncc3c(n2)n(C)c(=O)n3C(=O)N2CCC2)cc1 [compound 376]	
99	8.05	Cn1c(=O)n(C(=O)N2CCCC2)c2cnc(Cc3cccc(Cl)c3)nc21 [Example 19, 2-(3-Chlorobenzyl)-9-methyl-7-(pyrrolidin-1-ylcarbonyl)-7,9-dihydro-8H-purine-8-one]	
103	8.00	CCCCOc1ccc(-c2ncc3c(n2)n(C(=O)N2CCC2)c(=O)n3C)cc1 [compound 349]	
98	7.49	Cn1c(=O)n(C(=O)N2CCCC2)c2nc(-c3ccc(OC(F)(F)F)cc3)ncc21 [Example 237, 7-Methyl-9-(pyrrolidin-1-ylcarbonyl)-2-[4-(trifluoromethoxy)phenyl]-7,9-dihydro-8H-purine-8-one]	
45	6.77	Cc1cccc(OCc2ncc3c(n2)n(C)c(=O)n3C(=O)N2CCC2)c1 [compound 411]	
99	8.22	COc1cccc(-c2ncc3c(n2)n(C)c(=O)n3C(=O)N2CCCCC2)c1 [Example 49, 2-(3-Methoxyphenyl)-9-methyl-7-(piperidin-1-ylcarbonyl)-7,9-dihydro-8H-purine-8-one]	
98	8.05	Cn1c(=O)n(C(=O)N2CCCC2)c2cnc(Cc3ccc(-c4ccccc4)cc3)nc21 [Example 265, 2-(Biphenyl-4-ylmethyl)-9-methyl-7-(pyrrolidin-1-ylcarbonyl)-7,9-dihydro-8H-purine-8-one]	

inhibition at 0.1 µM [1] [%]	pIC50 [2]	SMILES	other results
99	7.82	CCCCn1c(=O)n(C(=O)N2CCCC2)c2cnc(-c3ccccc3)nc21 [Example 306, 9-Butyl-2-phenyl-7-(pyrrolidin-1-ylcarbonyl)-7,9-dihydro-8H-purine-8-one]	
92	8.00	Cn1c(=O)n(C(=O)N2CCC2)c2nc(CCc3ccc(C(F)(F)F)cc3)ncc21 [compound 597]	
99	7.62	COc1cccc(N2CCN(C(=O)n3c(=O)n(C)c4nc(-c5ccccc5)ncc43)CC2)n1 [Example 54, 7-{[4-(6-Methoxypyridin-2-yl)piperazine-1-yl]carbonyl}-9-methyl-2-phenyl-7,9-dihydro-8H-purine-8-one]	
		Cn1c(=O)n(C(=O)N2CC(c3cccc(F)c3)C2)c2cnc(C3CC3)nc21 [compound 622]	inhibition at 0.1 µM [3]: 116%; pIC50 [4]: 9.00
75	7.46	CCc1cccc(OCc2ncc3c(n2)n(C(=O)N2CCC2)c(=O)n3C)c1 [Example 418]	
83	7.28	CN(C)C(=O)n1c(=O)n(C)c2cnc(-c3ccc(C(F)(F)F)cc3)nc21 [Example 326, N,N,7-Trimethyl-8-oxo-2-[4-(trifluoromethyl)phenyl]-7,8-dihydro-9H-purine-9-carboxamide]	
60	7.19	Cn1c(=O)n(C(=O)N2CCC2)c2nc(COc3cccc(F)c3)ncc21 [Example 420]	
89	7.35	COc1cccc(CN(C)C(=O)n2c(=O)n(C)c3nc(-c4cccc(OC)c4)ncc32)c1 [Example 73, N-(3-Methoxybenzyl)-2-(3-methoxyphenyl)-N,9-dimethyl-8-oxo-8,9-dihydro-7H-purine-7-carboxamide]	
102	9.22	Cn1c(=O)n(C(=O)N2CCC(CCc3ccc(Cl)cc3)CC2)c2cnc(-c3ccncc3)nc21 [Example 152, 7-({4-[2-(4-Chlorophenyl)ethyl]piperidin-1-yl}carbonyl)-9-methyl-2-(pyridin-4-yl)-7,9-dihydro-8H-purine-8-one]	
99	8.05	Cn1c(=O)n(C(=O)N2CCC2)c2nc(CCCOc3ccc(F)cc3)ncc21 [Example 401, 9-(Azetidin-1-ylcarbonyl)-2-[3-(4-fluorophenoxy)propyl]-7-methyl-7,9-dihydro-8H-purine-8-one]	
90	7.59	COc1cccc(-c2ncc3c(n2)n(C)c(=O)n3C(=O)N2CC[C@@H](F)C2)c1 [Example 62, 7-{[(3R)-3-Fluoropyrrolidin-1-yl]carbonyl}-2-(3-methoxyphenyl)-9-methyl-7,9-dihydro-8H-purine-8-one]	
		CN(C)C(=O)n1c(=O)n(C)c2cnc(CCOc3ccc(Cl)cc3)nc21 [compound 640]	inhibition at 0.1 µM [3]: 95%; pIC50 [4]: 7.92
23	6.96	CN(C)C(=O)n1c(=O)n(C)c2cnc(-c3cccc(OCc4ccccc4)c3)nc21 [compound 327]	
100	8.10	COCCCc1ncc2c(n1)n(C)c(=O)n2C(=O)N1CC(c2ccc(C(F)(F)F)cc2)C1 [Example 380, 2-(3-methoxypropyl)-9-methyl-7-({3-[4-(trifluoromethyl)phenyl]azetidin-1-yl}carbonyl)-7,9-dihydro-8H-purine-8-one]	
103	8.00	Cn1c(=O)n(C(=O)N2CCC2)c2cnc(COc3ccc(F)cc3)nc21 [Example 402, 7-(azetidin-1-ylcarbonyl)-2-[(4-fluorophenoxy)methyl]-9-methyl-7,9-dihydro-8H-purine-8-one]	
46	7.22	COc1cccc(-c2ncc3c(n2)n(C)c(=O)n3C(=O)N(C)CCN2CCOCC2)c1 [Example 111]	
101	8.70	CCCc1ncc2c(n1)n(C)c(=O)n2C(=O)N(C)CCc1ccc(Cl)cc1 [Example 154, N-[2-(4-Chlorophenyl)ethyl]-N,9-dimethyl-8-oxo-2-propyl-8,9-dihydro-7H-purine-7-carboxamide]	
		Cn1c(=O)n(C(=O)N2CCC2)c2nc(CCc3ccc(OC(F)(F)F)cc3)ncc21 [compound 609]	inhibition at 0.1 µM [3]: 108%; pIC50 [4]: 8.40

SMILES	inhibition at 0.1 µM [1] [%]	pIC50 [2]	other results
COc1cccc(-c2ncc3c(n2)n(C)c(=O)n3C(=O)N2CCN(Cc3cccc(F)c3)CC2)c1 [Example 85, 7-{[4-(3-Fluorobenzyl)piperazin-1-yl]carbonyl}-2-(3-methoxyphenyl)-9-methyl-7,9-dihydro-8H-purine-8-one]		7.51	inhibition at 0.1 µM [5]: 93%
